Experiments:
[1] = tested on: GARFT; settings: F. M. Muggia, New Drugs, 1992; cited from earlier work
[2] = tested on: C3H/BA mammary adenocarcinoma implanted in C3H/He female mice; experiment: In vivo antitumor activity, C3H/BA mammary adenocarcinoma; set-up: species or system mouse; settings: intraperitoneal, once daily for nine days, day 14
Experimental: (§1) On day zero, 2 mm^2 trocar fragments of C3H/BA mammary adenocarcinoma were implanted subcutaneously in the axillary region into groups of six C3H/He female mice. Starting on day 1, the test compound was administered intraperitoneally in 40% Encapsin given once daily for nine days. Control animals received identical treatment without test compound. The percentage of inhibition was calculated by comparing the mass of the control tumors (receiving diluent only) on day 14 to those of animals receiving test compound.

[3] = tested on: 6C3HED lymphosarcoma implanted in C3H/He female mice; experiment: In vivo antitumor activity, 6C3HED lymphosarcoma; set-up: species or system mouse; settings: intraperitoneal, once daily for nine days, day 11
Experimental: as §1, with “of 6C3HED lymphosarcoma” for “of C3H/BA mammary adenocarcinoma”, “without test:” for “without test”, “percentage” for “percentage of”, “inhibition given in Table 5 below” for “inhibition”, “day 11” for “day 14”

Row | SMILES | GARFT inhibition (in words) [1] | % Inhibition (tumor mass) ([2]; 5 mg/kg) | % Inhibition (tumor mass) ([2]; 10 mg/kg) | % Inhibition (tumor mass) ([2]; 20 mg/kg) | % Inhibition (tumor mass) ([3]; 12.5 mg/kg) | % Inhibition (tumor mass) ([3]; 25 mg/kg) | % Inhibition column: toxicity ([3]; 50 mg/kg)
1 | Nc1nc2c(c(=O)[nH]1)CC(CCc1ccc(C(=O)N[C@@H](CCC(=O)O)C(=O)O)cc1)CN2 (stereo partly shown) [5,10-dideazatetrahydrofolic acid] | specific tight binding inhibitor of GARFT |  |  |  |  |  | 
2 | Nc1nc2c(c(=O)[nH]1)SC(CCc1ccc(C(=O)N[C@@H](CCC(=O)O)C(=O)O)s1)CN2 (stereo partly drawn) [Compound 21, 4-[2-(2-Amino-4-oxo-4,6,7,8-tetrahydro-3H-pyrimido[5,4-6][1,4]thiazin-6-yl)-ethyl]-2,5-thienoylamino -L-glutamic acid] |  | 16% | 84% | 100% | 100% | 100% | toxic
